We go through one compound from patent US12097200B2, “Combination of BI853520 with chemotherapeutic drugs” (INXMED (NANJING) CO., LTD., priority 2020, dated 2024).

The subject of one assay is TOV-21G cells. Nature of the assay: Antitumor activity in mouse model of human ovarian cancer (TOV-21G xenograft). The assay is classed as in vivo. The conditions noted are these: combination of both. An excerpt:
(§1) For tumor volume, absolute values were used.
(§2) Appropriate statistical methods were used for evaluation.
TOV-21G cells harboring KRAS and PIK3CA gene mutations were obtained from ATCC (CRL-11730).

The test system of a further assay is A2780 cells. The assay is described as follows: Antitumor activity in mouse model of human ovarian cancer (A2780 xenograft). The assay is classed as in vivo.
Description: as §1, §2
A2780 cells harboring PTEN gene mutations were obtained from ECACC (93112519).
A general note: Xenograft models place foreign cells or tissue in a host animal.

The next assay concerns CTG-1086. Nature of the assay: Antitumor activity in ovarian cancer PDX model CTG-1086. The assay is classed as in vivo, mouse. The settings on record: 28 days until end of test, doses as Table 3.
Another assay relates to CTG-1180. The assay is described as follows: Antitumor activity in ovarian cancer PDX model CTG-1180. It counts as in vivo, mouse. The conditions noted are these: CTG-1180 (carboplatin and paclitaxel-resistant); 42 days until end of test; doses as Table 3.
For a further assay, the system named is CTG-1627. Nature of the assay: Antitumor activity in ovarian cancer PDX model CTG-1627. It counts as in vivo, mouse. The settings on record: 28 days until end of test, doses as Table 3.
The subject of another assay is CTG-1649. Nature of the assay: Antitumor activity in ovarian cancer PDX model CTG-1649. The assay is classed as in vivo, mouse. The conditions noted are these: 40 days until end of test, doses as Table 3.
In a further assay the test system is CTG-1677. The assay is described as follows: Antitumor activity in ovarian cancer PDX model CTG-1677. It counts as in vivo, mouse. The conditions noted are these: 32 days until end of test, doses as Table 3.
The test system of the next assay is NCI-H520 cells. The settings on record: NCI-H520 xenograft, day 22, combination of both.
Setting [1] is: day 22, BI 853520 12.5 mg/kg qd by gavage, PLD 1 mg/kg q7d i.v.
The mark [2] stands for this setting: BI 853520 50 mg/kg qd, cisplatin 5 mg/kg IP q7d.

Values joined by “and” are separate entries in the source; they are usually repeats but may differ in a detail not shown here. Equal entries are not always repeated.

Description for CTG-1086: (§3) Body weights (at start of dosing) were approximately 20 grams. […] Immunocompromised female mice were housed in HEPA ventilated cages (Innocage® IVC, Innovive USA) at 68-74° F. (20-23° C.) and 30-70% humidity under a 12-hour light/12-hour dark cycle. […] Animals with >10% body weight loss compared to day 0 received DietAel 76A (ClearH2O®, Portland, ME) for free. There were 3 mice in each group.
(§4) Mice were implanted with tumor cells from the ChampionsTumorGraft® ovarian model, which was established from patients previously treated with platinum-based therapy. After tumors reached 1000-1500 mm^3, they were collected, and tumor fragments SCs were implanted in the left flank of female pre-study mice. Each study animal was implanted with a specific passage batch. Tumor volume was measured twice a week with calipers to monitor tumor growth, and tumor volume (TV) was calculated using the formula (0.52×[length×width^2]). […] After initiation of dosing, animals were weighed daily using a digital scale and TV was measured twice weekly. […]
(§5) Inhibitory effect on tumor growth was determined by calculating TGI (100%×[1−(final MTV−initial MTV of the treatment group)/(final MTV−initial MTV of the control group)]). […]
(§6) CR: no TV could be detected (<4×4 mm^2), in 2 consecutive measurements […]
Description for CTG-1180: as §3, §4, §5, §6
Description for CTG-1627: as §3, §4, §5, §6
Description for CTG-1649: as §3, §4, §5, §6
Description for CTG-1677: as §3, §4, §5, §6
Description for NCI-H520 cells: Mice were approximately 6 weeks old. There were 5 mice in each group.
The cell concentration of the culture was maintained between 8×10^6 to 12×10^7 cells/tissue culture flask.
Cisplatin was dissolved in 0.9% saline.
Statistical evaluation was performed using the Student's t-test function in Microsoft Excel, utilizing a two-tailed distribution and a two-sample equal variance type.

As to `COc1cc(C(=O)NC2CCN(C)CC2)c(F)cc1Nc1ncc(C(F)(F)F)c(Oc2cccc3c2C(=O)N(C)C3)n1` [BI 853520, 2-fluoro-5-methoxy-4-[(4-(2-methyl-3-oxo-2,3-dihydro-1H-isoindole-4-oxy)-5-trifluoromethyl-pyrimidin-2-yl)amino]-N-(1-methyl-piperidin-4-yl)benzamide], the “Antitumor effect (in words)” value in the assay with TOV-21G cells (BI 853520 12.5 mg/kg qd, PLD 1 mg/kg q7d) is “good efficacy at low doses”; with A2780 cells (BI 853520 25 and 50 mg/kg qd, PLD 5 mg/kg q7d, combination 50 + 5 mg/kg), “efficacy of BI 853520 was observed at medium and high dose levels”. Also, the TGI in the assay with TOV-21G cells (day 1 to day 22, median tumor volumes, BI 853520 12.5 mg/kg qd, PLD 1 mg/kg q7d) stood at 67%; with A2780 cells (day 1 to day 15, BI 853520 12.5 mg/kg qd), 19%; in the assay with A2780 cells (day 1 to day 15, BI 853520 25 mg/kg qd), 83%; in the assay on A2780 cells (day 1 to day 15, BI 853520 50 mg/kg qd, PLD 5 mg/kg q7d, combination of both), 85%. The Median tumor volume is 271 mm^3 in the assay on TOV-21G cells (setting [1]); 968 mm^3 in the assay with A2780 cells (day 15, BI 853520 12.5 mg/kg qd by gavage); 284 mm^3 with A2780 cells (day 15, BI 853520 25 mg/kg qd by gavage); 262 mm^3 in the assay on A2780 cells (day 15, BI 853520 50 mg/kg qd by gavage, PLD 5 mg/kg q7d i.v., combination of both); 352 mm^3 in the assay with NCI-H520 cells (BI 853520 50 mg/kg qd by gavage, cisplatin 5 mg/kg IP once a week). Also, the “Tumor regression (animals with regression/animals in group)” value is “no tumor regression and 0/7” in the assay on TOV-21G cells (setting [1]); “no tumor regression and 0/10” in the assay on A2780 cells (day 15, BI 853520 12.5 mg/kg qd, 12.5 mg/kg); “no tumor regression and 0/10” in the assay on A2780 cells (day 15, BI 853520 25 mg/kg qd, 25 mg/kg); “no tumor regression and 0/10” with A2780 cells (day 15, BI 853520 50 mg/kg qd, PLD 5 mg/kg q7d, combination of both); 0/7 in the assay with NCI-H520 cells (setting [2]). Further, the “TGI (%)” value came out at 39% in the assay on CTG-1086; 33% in the assay with CTG-1180; 50% with CTG-1627; 71% in the assay on CTG-1649; 51% in the assay with CTG-1677. Besides, the “Median TGI” value in the assay on NCI-H520 cells (setting [2]) is given as 54%.

As usually defined, the TGI is how far tumour growth fell short of that in controls.
